Reference: PMC6297231 (Nature Communications, 2018)
Where two headings read alike, the source gives them in different places.

Columns and labels:
[1] = system: ML2; experiment: Cell viability assay; assay type: cell-based; conditions: Homo sapiens, ML-2, 24 h; ML2 (AML); read-out: AZD5991 24h GI50
Method: (§1) Cells were plated at 3000 cells/well in 384-well white plates in corresponding cell growth media. […] Caspase-3/7 activation was subsequently determined using a Caspase-Glo 3/7 Reagent (Promega) and viability was assayed using the CellTiter-Glo Reagent (Promega) as described in manufacturer’s instructions. Dose–response curves for caspase-3/7 activation and viability were plotted and analyzed (including EC50 and GI50 determination) using GraphPad Prism.

[2] = system: H1048; experiment: Cell viability assay; assay type: cell-based; conditions: Homo sapiens, NCI-H1048, 24 h; H1048 (Lung); read-out: AZD5991 24h GI50
Method: as §1

[3] = system: OCIM1; experiment: Caspase-3/7 activation assay; assay type: cell-based; conditions: OCI-M1, 6 h
Method: as §1

[4] = system: L363; experiment: Cell viability assay; assay type: cell-based; conditions: Homo sapiens, L-363, 24 h; L363 (MM); read-out: AZD5991 24h GI50
Method: as §1

[5] = system: KMS12PE; experiment: Cell viability assay; assay type: cell-based; conditions: Homo sapiens, KMS-12-PE, 24 h; KMS12PE (MM); read-out: AZD5991 24h GI50
Method: as §1

[6] = system: HEL92.1.7; experiment: Caspase-3/7 activation assay; assay type: cell-based; conditions: Homo sapiens, HEL 92.1.7, 6 h
Method: as §1

[7] = system: Nomo1; experiment: Caspase-3/7 activation assay; assay type: cell-based; conditions: Homo sapiens, NOMO-1, 6 h
Method: as §1

[8] = system: SKMEL24; experiment: Cell viability assay; assay type: cell-based; conditions: Homo sapiens, SK-MEL-24, 24 h; SKMEL24 (Skin); read-out: AZD5991 24h GI50
Method: as §1

[9] = system: ME1; experiment: Caspase-3/7 activation assay; assay type: cell-based; conditions: ME-1, 6 h
Method: as §1

[10] = system: HL60; experiment: Cell viability assay; assay type: cell-based; conditions: Homo sapiens, HL-60, 24 h; HL60 (AML); read-out: AZD5991 24h GI50
Method: as §1

[11] = system: CMK; experiment: Cell viability assay; assay type: cell-based; conditions: Homo sapiens, 24 h; CMK (AML); read-out: AZD5991 24h GI50
Method: as §1

[12] = system: MOLM13; experiment: Cell viability assay; assay type: cell-based; conditions: Homo sapiens, MOLM-13, 24 h; MOLM13 (AML); read-out: AZD5991 24h GI50
Method: as §1

[13] = system: MWCL1; experiment: Cell viability assay; assay type: cell-based; conditions: 24 h; MWCL1 (NHL); read-out: AZD5991 24h GI50
Method: as §1

[14] = system: OCIAML3; experiment: Caspase-3/7 activation assay; assay type: cell-based; conditions: Homo sapiens, OCI-AML-3, 6 h
Method: as §1

[15] = system: Ramos; experiment: Cell viability assay; assay type: cell-based; conditions: Homo sapiens, 24 h; Ramos (NHL); read-out: AZD5991 24h GI50
Method: as §1

[16] = system: Sudhl8; experiment: Cell viability assay; assay type: cell-based; conditions: Homo sapiens, SU-DHL-8, 24 h; Sudhl8 (NHL); read-out: AZD5991 24h GI50
Method: as §1

[17] = system: HMCB; experiment: Cell viability assay; assay type: cell-based; conditions: Homo sapiens, 24 h; HMCB (Skin); read-out: AZD5991 24h GI50
Method: as §1

[18] = system: A375; experiment: Cell viability assay; assay type: cell-based; conditions: Homo sapiens, A-375, 24 h; A375 (Skin); read-out: AZD5991 24h GI50
Method: as §1

[19] = system: ZR751; experiment: Cell viability assay; assay type: cell-based; conditions: Homo sapiens, ZR-75-1, 24 h; ZR751 (Breast); read-out: AZD5991 24h GI50
Method: as §1

[20] = system: MV4-11 tumors; experiment: MV4-11 rat subcutaneous xenograft; assay type: in vivo
Method: Female C.B.-17 SCID mice and female nude rats were purchased from Charles River Laboratories. […]. All xenograft studies were conducted at our Association for the Assessment and Accreditation of Laboratory Animal Care accredited facility in Waltham, MA in accordance with ethical regulations described in the guidelines established by the internal Institutional Animal Care and Use Committee. […]. In mice, drugs were dosed intravenously in a volume of 5 mL kg^-1 except for venetoclax that was dosed orally in a volume of 10 mL kg^-1. […]. Ten million MV4-11 cells were injected subcutaneously in the right flank of rats in a volume of 0.1 mL. Tumor volumes (measured by caliper), animal body weight, and tumor condition were recorded twice weekly for the duration of the study. The tumor volume was calculated using the formula: length (mm) × width (mm)^2/0.52. For efficacy studies, growth inhibition from the start of treatment was assessed by comparison of the differences in tumor volume between control and treated groups. Statistical significance was evaluated using non-parametric, unpaired, two-tailed t-test. […] For pharmacokinetic analysis, plasma samples were precipitated and diluted with acetonitrile containing internal standard and analyzed by LC–MS/MS versus a calibration curve of known concentrations.

[21] = system: BT20; experiment: Cell viability assay; assay type: cell-based; conditions: Homo sapiens, BT-20, 24 h; BT20 (Breast); read-out: AZD5991 24h GI50
Method: as §1

[22] = system: FaDu; experiment: Cell viability assay; assay type: cell-based; conditions: Homo sapiens, 24 h; FaDu (Others); read-out: AZD5991 24h GI50
Method: as §1

[23] = system: KG1a; experiment: Cell viability assay; assay type: cell-based; conditions: Homo sapiens, KG-1a, 24 h; KG1a (AML); read-out: AZD5991 24h GI50
Method: as §1

[24] = system: OCILY3; experiment: Cell viability assay; assay type: cell-based; conditions: Homo sapiens, OCI-Ly3, 24 h; OCILY3 (NHL); read-out: AZD5991 24h GI50
Method: as §1

[25] = system: U2932; experiment: Cell viability assay; assay type: cell-based; conditions: Homo sapiens, 24 h; U2932 (NHL); read-out: AZD5991 24h GI50
Method: as §1

Cc1c2c(nn1C)CSCc1cc(n(C)n1)CSc1cc(c3ccccc3c1)OCCCc1c(C(=O)O)n(C)c3c-2c(Cl)ccc13 (atropisomer, axis not shown; (Ra)) [(Ra)-7]
GI50 [1]: 69 nM
GI50 [2]: 4250 nM
EC50 ([3]; read-out: 6h caspase EC50, OCIM1, single agent): > 333 nM
EC50 ([3]; read-out: AZD5991 6h EC50, OCIM1 (AML), caspase 3/7 activation): > 30000 nM
GI50 [4]: 75 nM
GI50 [5]: 329 nM
EC50 ([6]; read-out: 6h caspase EC50, HEL9217, single agent): > 333 nM
EC50 ([6]; read-out: AZD5991 6h EC50, HEL92.1.7 (AML), caspase 3/7 activation): 564 nM
EC50 ([7]; read-out: 6h caspase EC50, NOMO1, single agent): 32.5 nM
EC50 ([7]; read-out: AZD5991 6h EC50, Nomo1 (AML), caspase 3/7 activation): 47 nM
GI50 [8]: 17900 nM
EC50 ([9]; read-out: 6h caspase EC50, ME1, single agent): > 333 nM
EC50 ([9]; read-out: AZD5991 6h EC50, ME1 (AML), caspase 3/7 activation): 326 nM
GI50 [10]: 543 nM
GI50 [11]: > 30000 nM
GI50 [12]: 42 nM
GI50 [13]: 1650 nM
EC50 ([14]; read-out: 6h caspase EC50, OCIAML3, single agent): > 333 nM
EC50 ([14]; read-out: AZD5991 6h EC50, OCIAML3 (AML), caspase 3/7 activation): 782 nM
GI50 [15]: 11 nM
GI50 [16]: 198 nM
GI50 [17]: 3000 nM
GI50 [18]: 13500 nM
GI50 [19]: 21200 nM
tolerability, body weight ([20]; 30 mg kg^−1 i.v.): no significant body weight loss
antitumor response ([20]; single i.v. dose 30 mg kg^−1): TR observed
GI50 [21]: 4630 nM
GI50 [22]: 8870 nM
GI50 [23]: 1430 nM
GI50 [24]: 6190 nM
GI50 [25]: 15500 nM
